From ChEMBL document CHEMBL4814006, “Novel amino substituted tetracyclic imidazo[4,5-b]pyridine derivatives: Design, synthesis, antiproliferative activity and DNA/RNA binding study” (Eur J Med Chem, 2021)
Activity calls are given as the source filed them. The calls are words filed in the database; no cut-off is given here.

What was measured:
HEK293 = test: Cytotoxicity against human HEK293 cells assessed as inhibition of cell growth incubated for 72 hrs by MTT assay; assay type: cell-based; conditions: HEK293, 72 h
[1] = tested on: Poly(dA-dU)oligonucleotide; test: Binding affinity to polyA-polyU RNA (unknown origin) assessed as change in melting temperature in sodium cacodylate buffer at pH 7 at compound:polynucleotide concentration ratio of 0.3 by UV/vis spectrophotometric analysis; assay type: nucleic-acid assay
Quadruplex DNA [2] = test: Binding affinity to human Tel22 G quadruplex DNA assessed as ratio of fluorescence intensity of compound-polynucleotide complex to fluorescence intensity of compound in sodium cacodylate buffer at pH 7 at binding stoichiometry ratio of 1:1 by fluorescence spectroscopy; assay type: nucleic-acid assay
Quadruplex DNA [3] = test: Binding affinity to human Tel22 G quadruplex DNA assessed as change in melting temperature in sodium cacodylate buffer at pH 7 by UV/Vis spectrophotometric analysis; assay type: nucleic-acid assay
Quadruplex DNA [4] = test: Binding affinity to human Tel22 G quadruplex DNA assessed as binding constant in sodium cacodylate buffer at pH 7 at binding stoichiometry ratio of 1:1 by fluorescence spectroscopy; assay type: nucleic-acid assay
[5] = tested on: Poly(dG-dC)oligonucleotide; test: Binding affinity to poly(dGdC)2 DNA (unknown origin) in sodium cacodylate buffer at pH 7 by CD spectroscopy; assay type: nucleic-acid assay
[6] = tested on: Poly(dA-dT)oligonucleotide; test: Binding affinity to poly(dAdT)2 DNA (unknown origin) assessed as ratio of fluorescence intensity of compound-polynucleotide complex to fluorescence intensity of compound in sodium cacodylate buffer at pH 7 by fluorescence spectroscopy based Scatchard method; assay type: nucleic-acid assay
Calf thymus DNA [7] = test: Binding affinity to calf thymus DNA assessed as change in melting temperature in sodium cacodylate buffer at pH 7 at compound:polynucleotide concentration ratio of 0.3 by UV/Vis spectrophotometric analysis; assay type: nucleic-acid assay; conditions: Bos taurus
HCT-116 = test: Antiproliferative activity against human HCT-116 cells assessed as inhibition of cell growth incubated for 72 hrs by MTT assay; assay type: functional, cell-based; conditions: HCT-116, 72 h
[8] = tested on: Poly(dA-dT)oligonucleotide; test: Binding affinity to poly(dAdT)2 DNA (unknown origin) assessed as ratio of bound compound to polynucleotide phosphate in sodium cacodylate buffer at pH 7 by fluorescence spectroscopy based Scatchard method; assay type: nucleic-acid assay
[9] = tested on: Poly(dA-dU)oligonucleotide; test: Binding affinity to polyA-polyU RNA (unknown origin) assessed as ratio of fluorescence intensity of compound-polynucleotide complex to fluorescence intensity of compound in sodium cacodylate buffer at pH 7 by fluorescence spectroscopy based Scatchard method; assay type: nucleic-acid assay
[10] = tested on: Poly(dA-dT)oligonucleotide; test: Binding affinity to poly(dAdT)2 DNA (unknown origin) assessed as change in melting temperature in sodium cacodylate buffer at pH 7 at compound:polynucleotide concentration ratio of 0.3 by UV/Vis spectrophotometric analysis; assay type: nucleic-acid assay
NCI-H460 = test: Antiproliferative activity against human NCI-H460 cells assessed as inhibition of cell growth incubated for 72 hrs by MTT assay; assay type: functional, cell-based; conditions: NCI-H460, 72 h
Calf thymus DNA [11] = test: Binding affinity to calf thymus DNA in sodium cacodylate buffer at pH 7 by CD spectroscopy; conditions: Bos taurus
[12] = tested on: Poly(dA-dT)oligonucleotide; test: Binding affinity to poly(dAdT)2 DNA (unknown origin) in sodium cacodylate buffer at pH 7 by CD spectroscopy; assay type: nucleic-acid assay
[13] = tested on: Poly(dA-dU)oligonucleotide; test: Binding affinity to polyA-polyU RNA (unknown origin) assessed as binding constant in sodium cacodylate buffer at pH 7 by fluorescence spectroscopy; assay type: nucleic-acid assay
[14] = tested on: Poly(dA-dT)oligonucleotide; test: Binding affinity to poly(dAdT)2 DNA (unknown origin) assessed as binding constant in sodium cacodylate buffer at pH 7 by fluorescence spectroscopy; assay type: nucleic-acid assay
[15] = tested on: Poly(dA-dU)oligonucleotide; test: Binding affinity to polyA-polyU RNA (unknown origin) assessed as ratio of bound compound to polynucleotide phosphate in sodium cacodylate buffer at pH 7 by fluorescence spectroscopy based Scatchard method; assay type: nucleic-acid assay
MCF7 = test: Antiproliferative activity against human MCF7 cells assessed as inhibition of cell growth incubated for 72 hrs by MTT assay; assay type: functional, cell-based; conditions: MCF7, 72 h
[16] = Selectivity index, ratio of IC50 for human HEK293 cells to IC50 for human HCT116 cells; assay type: toxicity; conditions: HEK293 cells versus HCT116 cells, read-out: Ratio IC50

Row | ΔTm [1] [°C] | Ratio (Quadruplex DNA [2]) | ΔTm (Quadruplex DNA [3]) [°C] | log Ks (Quadruplex DNA [4]) | Activity [5] | Ratio [6] | ΔTm (Calf thymus DNA [7]) [°C] | IC50 (HCT-116) [µM] | Ratio [8] | Ratio [9] | ΔTm [10] [°C] | IC50 (NCI-H460) [µM] | Activity [12] | log Ks [13] | log Ks [14] | Ratio [15] | IC50 (MCF7) [µM] | Compound | IC50 (HEK293) [µM] | Activity (Calf thymus DNA [11]) | selectivity ratio [16]
1 | 0 | 5.52 | 1.8 | 4.51 | inactive | 10.4 | 0.8 | ≥ 100 | 0.1 | 2.5 | 0.8 | ≥ 100 | Active | 5.3 | 4.6 | < 0.1 | ≥ 100 | CC(C)CNc1c(C#N)c2nc3cccnc3n2c2ccccc12 | > 100 | Active | –
2 | – | – | – | – | – | – | – | 0.1 | – | – | – | 4.6 | – | – | – | – | 2 | N#Cc1c(Cl)c2ccccc2n2c1nc1ncccc12 | 1.6 | – | 16
